Values quoted from earlier work in publication PMC3618595 (Pharmaceutical research, 2013).

Assays:
[1] = cited from earlier work
plasma proteins = details: cited from earlier work
hASBT = target: T1, hASBT (Homo sapiens, UniProt Q12908); details: taurocholate; cited from earlier work
T1 sequence (Q12908 1-348): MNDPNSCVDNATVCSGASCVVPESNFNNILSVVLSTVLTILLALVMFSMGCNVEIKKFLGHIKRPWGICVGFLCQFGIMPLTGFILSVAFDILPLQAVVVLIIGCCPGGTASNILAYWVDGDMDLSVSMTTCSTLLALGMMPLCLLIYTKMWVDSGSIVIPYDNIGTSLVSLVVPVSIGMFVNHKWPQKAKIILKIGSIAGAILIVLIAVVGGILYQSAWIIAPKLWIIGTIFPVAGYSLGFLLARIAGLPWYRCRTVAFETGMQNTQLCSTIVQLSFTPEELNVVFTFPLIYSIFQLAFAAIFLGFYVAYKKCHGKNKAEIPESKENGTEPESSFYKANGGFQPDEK

Structure (SMILES) | Octanol/water partition coefficient [1] | Binding to plasma proteins (plasma proteins) [%] | Km (hASBT) [µM]
C[C@H](CCC(=O)O)[C@H]1CC[C@H]2[C@@H]3[C@H](O)C[C@@H]4C[C@H](O)CC[C@]4(C)[C@H]3CC[C@]12C [chenodeoxycholic acid] | 23.3 | 96.2 | –
C[C@H](CCC(=O)NCCS(=O)(=O)O)[C@H]1CC[C@H]2[C@@H]3[C@H](O)C[C@@H]4C[C@H](O)CC[C@]4(C)[C@H]3C[C@H](O)[C@]12C [taurocholate] | – | – | 4.39
